This is an account of results in patent publication US20110319362A1, “STAT3 LIGANDS AND THERAPEUTIC USES THEREOF” (priority 2008, published 2011).

Read-outs that look alike come from different tables or passages of the source.

The target of one experiment is T1, STAT3 protein (Homo sapiens, UniProt P40763).
T1 construct: human STAT3 protein (residues 122-722) fused to His-tag; His-tag
Put plainly: In vitro competitive STAT3 binding assay (fluorescence polarization). An excerpt: To quantitatively determine the binding affinities of STAT3 inhibitors to STAT3 protein, a sensitive and quantitative in vitro binding assay was developed based upon fluorescence polarization (FP) method. For this FP assay, 5-carboxyfluorescein (5-Fam) was coupled to a phosphopeptide (phospho-Tyr-Leu-Pro-Gln-Thr-Val-amide) with two beta-alanine and one glycine residues as the spacer between 5-Fam and the phosphopeptide to obtain 5-Fam-beta-Ala-beta-Ala-Gly-phospho-Tyr-Leu-Pro-Gln-Thr-Val-amide as the fluorescently tagged tracer, which was named as STT2 peptide. […] The recombinant human STAT3 protein (residues 122-722) fused to His-tag was stable and soluble.
Competitive binding experiments were carried out using 150 nM of STAT3 protein and 5 nM of STT2 peptide with different concentrations of a tested STAT3 inhibitor. For each experiment, two controls were included. One control contained STAT3 protein and STT2 peptide, and the second control contained STT2 peptide only. The polarization values were measured after 2-3 hours of incubation using an ULTRA READER (Tecan U.S. Inc., Research Triangle Park, N.C.). IC50 values, the inhibitor concentration at which 50% of the fluorescently tagged STT2 peptide is displaced by STAT3 inhibitors, was determined from a plot using nonlinear least-squares analysis using GRAPHPAD PRISM software (GraphPad Software, Inc., San Diego, Calif.). […]
On the technique in general: Fluorescence polarisation rises when a labelled molecule tumbles more slowly, as on binding a larger partner.

Experiment [1] deals with MDA-MB-231 cancer cell line. Put plainly: Cell growth assay (WST-8). Format: cell-based. The following applies: Homo sapiens, MDA-MB-231, 96 h; WST-8, 4 days; read-out: Inhibition of cell growth IC50, MDA-MB-231 cancer cell line. Here is the method:
(§1) The effect of STAT3 compounds on cell growth was evaluated by a WST-8 [2-(2-methoxy-4-nitrophenyl)-3-(4-nitrophenyl)-5-(2,4-disulfophenyl)-2H-tetrazolium, monosodium salt assay (Dojindo Molecular Technologies, Inc). Cells (3000-4000 cells in each well) were cultured in 96-well tissue culture plates in medium (200 μL) containing various concentrations of STAT3 compounds for 4 days. At the end of incubation, WST-8 dye (20 μL) was added to each well and incubated for an additional 1-3 h, and then the absorbance was measured in a microplate reader (Molecular Devices) at 450 nm. Cell growth inhibition was evaluated as the ratio of the absorbance of the sample to that of the control.
(Formazan colour is commonly taken as a measure of viable cells.)

In experiment [2] the test system is MDA-MB-468 cancer cell line. Put plainly: Cell growth assay (WST-8). Format: cell-based. The note with it: Homo sapiens, MDA-MB-468, 96 h; WST-8, 4 days; read-out: Inhibition of cell growth IC50, MDA-MB-468 cancer cell line. The method, then:
as §1

Where [3] appears, read: FP competitive binding, fluorescently tagged STT2 peptide tracer, read-out: Binding affinities to STAT3 IC50.

T1 sequence (P40763 122-722): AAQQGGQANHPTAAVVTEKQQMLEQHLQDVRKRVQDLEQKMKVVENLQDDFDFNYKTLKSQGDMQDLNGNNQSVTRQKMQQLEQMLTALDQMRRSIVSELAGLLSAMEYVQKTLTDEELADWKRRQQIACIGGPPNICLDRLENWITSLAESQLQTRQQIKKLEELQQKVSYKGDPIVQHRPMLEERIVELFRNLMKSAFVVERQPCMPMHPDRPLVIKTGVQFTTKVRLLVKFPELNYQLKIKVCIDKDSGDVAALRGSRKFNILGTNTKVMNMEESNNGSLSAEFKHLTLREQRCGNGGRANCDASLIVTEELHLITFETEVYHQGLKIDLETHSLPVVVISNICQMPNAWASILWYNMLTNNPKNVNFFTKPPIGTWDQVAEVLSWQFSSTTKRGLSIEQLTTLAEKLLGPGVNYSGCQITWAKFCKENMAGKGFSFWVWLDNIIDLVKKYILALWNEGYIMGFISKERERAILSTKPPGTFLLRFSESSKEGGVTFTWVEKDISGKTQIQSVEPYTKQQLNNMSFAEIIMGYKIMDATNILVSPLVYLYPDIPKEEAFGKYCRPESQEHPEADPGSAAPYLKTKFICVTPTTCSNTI

One may read the IC50 as the concentration that inhibits the measured activity by half. `CC(=O)N[C@@H](Cc1ccc(OC(C(=O)O)C(=O)O)cc1)C(=O)N[C@H]1CCCCC2CC[C@@H](C(=O)N[C@@H](CCC(N)=O)C(=O)NCc3ccccc3)N2C1=O` (stereo partly drawn): the half-maximal inhibitory concentration (IC50) on STAT3 protein (setting [3]) was under 10 µM; in experiment [1] it was over 50 µM; in experiment [2] it was over 100 µM.

As for `O=C(CCc1ccccc1)N[C@@H](Cc1ccc(OP(=O)(O)O)cc1)C(=O)N[C@H]1CCCCC2CC[C@@H](C(=O)N[C@@H](CCC(=O)NC(c3ccccc3)(c3ccccc3)c3ccccc3)C(=O)NCc3ccccc3)N2C1=O` (stereo partly drawn), the figures for the 50% inhibitory concentration (IC50) (at STAT3 protein (setting [3]); in experiment [1]; in experiment [2]) were under 20 µM, over 100 µM and over 50 µM, respectively.

As to `CCOC(=O)COc1ccc(C[C@H](NC(C)=O)C(=O)N[C@H]2CCCCC3CC[C@@H](C(=O)N[C@@H](CCC(N)=O)C(=O)NCc4ccccc4)N3C2=O)cc1` (stereo partly drawn), the IC50 (at STAT3 protein (setting [3]); in experiment [1]; in experiment [2]) was over 100 µM each time.

As for `CCOC(=O)C(Oc1ccc(C[C@H](NC(C)=O)C(=O)N[C@H]2CCCCC3CC[C@@H](C(=O)N[C@@H](CCC(N)=O)C(=O)NCc4ccccc4)N3C2=O)cc1)C(=O)OCC` (stereo partly drawn), the half-inhibitory concentration (IC50) at STAT3 protein (setting [3]) is over 100 µM; in experiment [1], over 30 µM; in experiment [2] it was over 100 µM.

As for `CN(C)CCCCNC(=O)[C@@H]1CCC2CCCC[C@H](NC(=O)[C@H](Cc3ccc(OP(=O)(O)O)cc3)NC(=O)OCc3ccccc3)C(=O)N21` (stereo partly drawn), the values for the IC50 (at STAT3 protein (setting [3]); in experiment [1]; in experiment [2]) were under 30 µM, over 100 µM and over 100 µM, respectively.

As to `CP(=O)(O)Cc1ccc(CCC(=O)N[C@H]2CCCCC3CC[C@@H](C(=O)N[C@@H](CCC(N)=O)C(=O)NCc4ccccc4)N3C2=O)cc1` (stereo partly drawn), the IC50 (on STAT3 protein (setting [3]); in experiment [1]; in experiment [2]) was over 100 µM each time.

Regarding `CP(=O)(O)CCCCCC(=O)N[C@H]1CCCCC2CC[C@@H](C(=O)N[C@@H](CCC(N)=O)C(=O)NCc3ccccc3)N2C1=O` (stereo partly drawn), the half-inhibitory concentration (IC50) (on STAT3 protein (setting [3]); in experiment [1]; in experiment [2]) was over 100 µM throughout.

As for `CN[C@@H](Cc1ccc(OC(C(=O)O)C(=O)O)cc1)C(=O)N[C@H]1CCCCC2CC[C@@H](C(=O)N[C@@H](CCCN)C(=O)NCc3ccccc3)N2C1=O` (stereo partly drawn), the IC50 at STAT3 protein (setting [3]) was over 10 µM; in experiment [1] it was over 100 µM; in experiment [2], over 100 µM.

Take `CN[C@@H](Cc1ccc(OC(C(=O)O)C(=O)O)cc1)C(=O)N[C@H]1CCCCC2CC[C@@H](C(=O)N[C@@H](Cc3c[nH]cn3)C(=O)NCc3ccccc3)N2C1=O` (stereo partly drawn): the IC50 at STAT3 protein (setting [3]) is over 10 µM; in experiment [1] it was over 100 µM; in experiment [2], over 100 µM.

For `CCOC(=O)C(Oc1ccc(C[C@@H](C(=O)N[C@H]2CCCCC3CC[C@@H](C(=O)N[C@@H](CCCNC(C)=O)C(=O)NCc4ccccc4)N3C2=O)N(C)C)cc1)C(=O)OCC` (stereo partly drawn), the IC50 at STAT3 protein (setting [3]) is over 10 µM; in experiment [1] it was over 100 µM; in experiment [2], over 100 µM.

As to `CCOC(=O)C(Oc1ccc(C[C@@H](C(=O)N[C@H]2CCCCC3CC[C@@H](C(=O)N[C@@H](Cc4c[nH]cn4)C(=O)NCc4ccccc4)N3C2=O)N(C)C)cc1)C(=O)OCC` (stereo partly drawn), the IC50 on STAT3 protein (setting [3]) was over 10 µM; in experiment [1], over 100 µM; in experiment [2] it was over 100 µM.

`CN(C)[C@@H](Cc1ccc(OC(C(=O)O)C(=O)O)cc1)C(=O)N[C@H]1CCCCC2CC[C@@H](C(=O)N[C@@H](Cc3c[nH]cn3)C(=O)NCc3ccccc3)N2C1=O` (stereo partly drawn): the half-inhibitory concentration (IC50) on STAT3 protein (setting [3]) is over 10 µM; in experiment [1], over 100 µM; in experiment [2], over 100 µM.

On to `CC(=O)NCCC[C@H](NC(=O)[C@@H]1CCC2CCCC[C@H](NC(=O)[C@H](Cc3ccc(OC(C(=O)O)C(=O)O)cc3)N(C)C)C(=O)N21)C(=O)NCc1ccccc1` (stereo partly drawn), for which the IC50 is over 10 µM on STAT3 protein (setting [3]), over 100 µM in experiment [1] and over 100 µM in experiment [2].

On to `CCCCCCCCCCCCCCCCN1CCN(CCC(=O)N[C@@H](Cc2ccc(OP(=O)(O)O)cc2)C(=O)N[C@H]2CCCCC3CC[C@@H](C(=O)NCCCCN(C)C)N3C2=O)CC1` (stereo partly drawn), for which the IC50 is under 20 µM on STAT3 protein (setting [3]), under 100 µM in experiment [1] and under 50 µM in experiment [2].

As to `CCCCCCCCCCCCCCCCN1CCN(CCC(=O)N[C@@H](Cc2ccc(OP(=O)(O)O)cc2)C(=O)N[C@H]2CCCCC3CC[C@@H](C(=O)NCCc4cn[nH]c4)N3C2=O)CC1` (stereo partly drawn), the figures for the IC50 (on STAT3 protein (setting [3]); in experiment [1]; in experiment [2]) were under 5 µM, under 20 µM and under 20 µM, respectively.

As for `CCCCCCCCCCCCCCCCN1CCN(CCC(=O)N[C@@H](Cc2ccc(OP(=O)(O)O)cc2)C(=O)N[C@H]2CCCCC3CC[C@@H](C(=O)NCCN4CCNC4=O)N3C2=O)CC1` (stereo partly drawn), the concentration for half-maximal inhibition (IC50) at STAT3 protein (setting [3]) is under 5 µM; in experiment [1] it was under 30 µM; in experiment [2] it was under 20 µM.

On to `CC(=O)N[C@@H](Cc1ccc(OCP(=O)(O)O)cc1)C(=O)NC1CCCC[C@H]2CC[C@@H](C(=O)N[C@@H](Cc3c[nH]cn3)C(=O)NCc3ccccc3)N2C1=O` (stereo in doubt) [Example 32], for which the concentration for half-maximal inhibition (IC50) on STAT3 protein was under 30 µM; in experiment [1], over 100 µM; in experiment [2], over 100 µM.

For the compound `CN(C)[C@@H](Cc1ccc(OCP(=O)(O)O)cc1)C(=O)NC1CCCC[C@H]2CC[C@@H](C(=O)N[C@@H](Cc3c[nH]cn3)C(=O)NCc3ccccc3)N2C1=O` (stereo in doubt) [Example 33], the IC50 (on STAT3 protein (setting [3]); in experiment [1]; in experiment [2]) was over 100 µM each time.

With `CN(C)[C@@H](Cc1ccc(OCP(=O)(O)O)cc1)C(=O)NC1CCCC[C@H]2CC[C@@H](C(=O)N[C@@H](Cc3c[nH]cn3)C(=O)NCCc3ccccc3)N2C1=O` (stereo in doubt) [Example 34], the values for the IC50 (at STAT3 protein (setting [3]); in experiment [1]; in experiment [2]) were under 30 µM, over 100 µM and over 100 µM, respectively.

In the case of `CN[C@@H](Cc1ccc(OCP(=O)(O)O)cc1)C(=O)NC1CCCC[C@H]2CC[C@@H](C(=O)N[C@@H](Cc3c[nH]cn3)C(=O)NCc3ccccc3)N2C1=O` (stereo in doubt) [Example 35], the values for the IC50 (at STAT3 protein (setting [3]); in experiment [1]; in experiment [2]) were under 100 µM, over 100 µM and over 100 µM, respectively.

In the case of `CN(C)[C@@H](Cc1ccc(OP(=O)(O)O)cc1)C(=O)N[C@H]1CCCCC2CC[C@@H](C(=O)N[C@@H](CCC(N)=O)C(=O)NCc3ccccc3)N2C1=O` (stereo in doubt) [Example 36], the IC50 is under 5 µM at STAT3 protein (setting [3]), over 100 µM in experiment [1] and over 100 µM in experiment [2].

As for `CN(C)[C@@H](Cc1ccc(OP(=O)(O)O)cc1)C(=O)N[C@H]1CCCCC2CC[C@@H](C(=O)N[C@@H](Cc3c[nH]cn3)C(=O)NCc3ccccc3)N2C1=O` (stereo in doubt) [Example 39], the IC50 on STAT3 protein (setting [3]) is under 10 µM; in experiment [1], over 100 µM; in experiment [2], over 100 µM.

Take `CN[C@@H](Cc1ccc(OP(=O)(O)O)cc1)C(=O)N[C@H]1CCCCC2CC[C@@H](C(=O)N[C@@H](CCC(N)=O)C(=O)NCc3ccccc3)N2C1=O` (stereo in doubt) [Example 40]: the half-inhibitory concentration (IC50) at STAT3 protein (setting [3]) is under 1 µM; in experiment [1] it was over 30 µM; in experiment [2] it was over 100 µM.

As to `NC(=O)CC[C@H](NC(=O)[C@@H]1CCC2CCCC[C@H](NC(=O)[C@H](Cc3ccc(OP(=O)(O)O)cc3)NC(=O)OCc3ccccc3)C(=O)N21)C(=O)NCc1ccccc1` (stereo in doubt) [Example 41], the IC50 at STAT3 protein is under 1 µM; in experiment [1], over 50 µM; in experiment [2] it was over 100 µM.

`CC(=O)N[C@@H](Cc1ccc(OP(=O)(O)O)cc1)C(=O)N[C@H]1CCCC[C@H]2CC[C@@H](C(=O)N[C@@H](CCC(N)=O)C(=O)NCc3ccccc3)N2C1=O` [Example 1]: the IC50 at STAT3 protein (setting [3]) was under 1 µM; in experiment [1], over 20 µM; in experiment [2] it was over 100 µM.

As for `NC(=O)CC[C@H](NC(=O)[C@@H]1CC[C@@H]2CCCC[C@H](NC(=O)[C@H](Cc3ccc(OP(=O)(O)O)cc3)NC(=O)CCc3ccccc3)C(=O)N21)C(=O)NCc1ccccc1` [Example 2], the IC50 on STAT3 protein was under 1 µM; in experiment [1], over 20 µM; in experiment [2] it was over 100 µM.

For the compound `CC(C)(C)OC(=O)CCc1ccc(CCC(=O)N[C@H]2CCCC[C@H]3CC[C@@H](C(=O)NCC[C@H](O)CO)N3C2=O)cc1` [Example 3], the IC50 at STAT3 protein (setting [3]) was over 100 µM; in experiment [1] it was over 30 µM; in experiment [2], over 100 µM.

For `O=C(O)CCc1ccc(CCC(=O)N[C@H]2CCCC[C@H]3CC[C@@H](C(=O)NCC[C@H](O)CO)N3C2=O)cc1` [Example 4], the IC50 on STAT3 protein (setting [3]) is over 100 µM; in experiment [1] it was over 30 µM; in experiment [2], over 100 µM.
